Results from ChEMBL document CHEMBL1150496, “Synthesis and biological activity of C-5 modified derivatives of (+)-AJ76 and (+)-UH232: Increased dopamine D3 receptor preference and improved pharmacokinetic properties” (Bioorg Med Chem Lett, 1994).
Calls of active or inactive are those of the source. The calls are words filed in the database; no cut-off is given here.

How the values were obtained:
[1] = Half-life was estimated from the elimination phase of the oral [C] vs time curves in 4 rats; type: ADME, organism-based; conditions: rat, in vivo
[2] = In vivo percent of absolute bioavailability obtained from blood plasma levels analyzed by means of GC/MS (dose 5 uM/kg i.v. and 40 uM/kg, p.o.); type: ADME, organism-based; conditions: rat, po
D(2) dopamine receptor [3] = target: T1, D(2) dopamine receptor (Homo sapiens, UniProt P14416); assay: Binding affinity was measured at cloned mammalian dopamine D2 receptor expressed in CHO-K1 cells (using [3H]U-86170); type: cell-based
Rattus norvegicus [4] = assay: In vivo 5-HIAA level was measured in killed rat limbic brain regions at a dose of 12.5 umol/kg, sc; type: functional, Limbic system
Rattus norvegicus [5] = assay: In vivo DOPAC level was measured in killed rat striatal brain regions at a dose of 12.5 umol/kg, sc; type: functional
Rattus norvegicus [6] = assay: In vivo DOPAC level was measured in killed rat striatal brain regions at a dose of 50 umol/kg, sc; type: functional
Rattus norvegicus [7] = assay: In vivo HVA level was measured in killed rat striatal brain regions at a dose of 12.5 umol/kg, sc; type: functional
Rattus norvegicus [8] = assay: In vivo HVA level was measured in killed rat striatal brain regions at a dose of 50 umol/kg, sc; type: functional
Rattus norvegicus [9] = assay: In vivo locomotor activity (LMA) in habituated rats at a dose of 12.5 umol/kg, sc, for 60 mins after 60 min habituation period; type: functional
Rattus norvegicus [10] = assay: In vivo locomotor activity (LMA) in habituated rats at a dose of 50 umol/kg, sc, for 60 mins after 60 min habituation period; type: functional
Rattus norvegicus [11] = assay: In vivo 5-HIAA level was measured in killed rat limbic brain regions at a dose of 50 umol/kg, sc; type: functional, Limbic system
Rattus norvegicus [12] = assay: In vivo 5-HIAA level was measured in killed rat limbic brain regions at a dose of 100 umol/kg, sc; type: functional, Limbic system; design: unit not given here
Rattus norvegicus [13] = assay: In vivo DOPAC level was measured in killed rat striatal brain regions at a dose of 100 umol/kg, sc; type: functional; design: unit not given here
Rattus norvegicus [14] = assay: In vivo HVA level was measured in killed rat striatal brain regions at a dose of 100 umol/kg, sc; type: functional; design: unit not given here
Rattus norvegicus [15] = assay: In vivo locomotor activity (LMA) in habituated rats at a dose of 100 umol/kg, sc, for 60 mins after 60 min habituation period; type: functional; design: unit not given here
D(2) dopamine receptor [16] = target: T1, D(2) dopamine receptor; assay: Binding affinity was measured at cloned mammalian dopamine D2 receptor expressed in CHO-K1 cells (using [3H]U-86,170); NA means Inactive; type: cell-based
D(2) dopamine receptor [17] = target: T1, D(2) dopamine receptor; assay: Percent inhibition against dopamine D2 receptor at a concentration of 1 umol/L
D(3) dopamine receptor [18] = target: D(3) dopamine receptor (Rattus norvegicus, UniProt P19020); assay: Binding affinity was measured at cloned mammalian dopamine D3 receptor expressed in CHO-K1 cells (using [3H]- spiperone); NA means inactive; type: cell-based
[19] = target: D(3) dopamine receptor (Rattus norvegicus) (UniProt P19020); assay: Percent inhibition against dopamine D3 receptor at a concentration of 1 umol/L
D(2) dopamine receptor [20] = target: D(2) dopamine receptor (Rattus norvegicus, UniProt P61169); assay: Binding affinity was measured from rat striatal membrane using [3H]-spiperone at D2 receptors
D(4) dopamine receptor [21] = target: T2, D(4) dopamine receptor (Homo sapiens, UniProt P21917); assay: Binding affinity was measured at cloned mammalian dopamine D4 receptor expressed in CHO-K1 cells (using [3H]- spiperone); NA means inactive; type: cell-based
T2 sequence (P21917 whole entry): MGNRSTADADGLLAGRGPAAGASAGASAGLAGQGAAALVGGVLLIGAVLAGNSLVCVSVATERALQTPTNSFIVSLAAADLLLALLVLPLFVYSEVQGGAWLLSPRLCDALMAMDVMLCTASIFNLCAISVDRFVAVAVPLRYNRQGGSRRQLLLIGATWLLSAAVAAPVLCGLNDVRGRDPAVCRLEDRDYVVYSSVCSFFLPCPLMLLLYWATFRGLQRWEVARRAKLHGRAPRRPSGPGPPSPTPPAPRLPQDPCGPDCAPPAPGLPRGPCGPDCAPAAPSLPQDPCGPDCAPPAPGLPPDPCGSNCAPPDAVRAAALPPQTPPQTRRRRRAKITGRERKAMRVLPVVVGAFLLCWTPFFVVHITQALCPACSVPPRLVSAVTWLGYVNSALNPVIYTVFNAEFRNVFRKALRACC

[22] = target: T3, D(4) dopamine receptor (Homo sapiens) (UniProt P21917); assay: Percent inhibition against dopamine D4 receptor at a concentration of 1 umol/L
T3 sequence (whole entry): T2 sequence (P21917 whole entry)

Rattus norvegicus [23] = assay: In vivo 5-HIAA level was measured in killed rat limbic brain regions at a dose of 25 umol/kg, sc; type: functional, Limbic system
Rattus norvegicus [24] = assay: In vivo DOPAC level was measured in killed rat striatal brain regions at a dose of 25 umol/kg, sc; type: functional
Rattus norvegicus [25] = assay: In vivo HVA level was measured in killed rat striatal brain regions at a dose of 25 umol/kg, sc; type: functional
Rattus norvegicus [26] = assay: In vivo locomotor activity (LMA) in habituated rats at a dose of 25 umol/kg, sc, for 60 mins after 60 min habituation period; type: functional
[27] = target: T4, 5-hydroxytryptamine receptor 1A (Homo sapiens, UniProt P08908); assay: (§1) Binding affinity was measured at cloned mammalian 5-HT1A receptor expressed in CHO-K1 cells (using [3H]8-OH-DPAT ); type: cell-based
T4 sequence (P08908 whole entry): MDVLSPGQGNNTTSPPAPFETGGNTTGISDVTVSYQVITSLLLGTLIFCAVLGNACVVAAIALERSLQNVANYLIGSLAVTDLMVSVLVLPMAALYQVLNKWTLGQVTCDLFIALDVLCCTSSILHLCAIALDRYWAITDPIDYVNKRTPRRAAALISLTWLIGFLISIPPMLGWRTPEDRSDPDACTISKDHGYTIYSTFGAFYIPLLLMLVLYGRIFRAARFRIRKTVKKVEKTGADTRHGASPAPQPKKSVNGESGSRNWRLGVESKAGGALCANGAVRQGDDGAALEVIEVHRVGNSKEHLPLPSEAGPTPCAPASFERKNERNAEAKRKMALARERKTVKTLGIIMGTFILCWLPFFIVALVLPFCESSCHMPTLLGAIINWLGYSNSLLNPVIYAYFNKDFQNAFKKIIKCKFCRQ

[28] = target: T5, 5-hydroxytryptamine receptor 1A (Rattus norvegicus, UniProt P19327); assay: Binding affinity was measured at 5-HT1A receptor in rat striatal membranes using [3H]8-OH-DPAT; type: cell membranes, Striatum, Membrane
T5 sequence (P19327 whole entry): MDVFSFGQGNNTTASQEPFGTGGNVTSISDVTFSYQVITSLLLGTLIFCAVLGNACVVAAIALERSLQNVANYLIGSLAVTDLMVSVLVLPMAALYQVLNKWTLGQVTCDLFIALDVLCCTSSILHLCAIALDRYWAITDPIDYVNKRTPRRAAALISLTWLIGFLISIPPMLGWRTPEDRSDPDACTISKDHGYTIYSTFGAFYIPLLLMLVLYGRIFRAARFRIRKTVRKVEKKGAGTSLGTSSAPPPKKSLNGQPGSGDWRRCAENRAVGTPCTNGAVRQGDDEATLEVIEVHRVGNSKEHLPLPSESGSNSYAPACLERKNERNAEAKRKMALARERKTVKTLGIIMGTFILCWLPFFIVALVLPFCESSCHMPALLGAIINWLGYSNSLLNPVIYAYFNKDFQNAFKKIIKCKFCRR

D(3) dopamine receptor [29] = target: D(3) dopamine receptor (Homo sapiens, UniProt P35462); assay: Binding affinity was measured at cloned mammalian dopamine D3 receptor expressed in CHO-K1 cells (using [3H]- spiperone); type: cell-based
D(4) dopamine receptor [30] = target: T2, D(4) dopamine receptor; assay: Binding affinity was measured at cloned mammalian dopamine D4 receptor expressed in CHO-K1 cells (using [3H]- spiperone); type: cell-based
Rattus norvegicus [31] = assay: In vivo 5-HIAA level was measured in killed rat limbic brain regions at a dose of 200 umol/kg, sc; type: functional, Limbic system
Rattus norvegicus [32] = assay: In vivo DOPAC level was measured in killed rat striatal brain regions at a dose of 200 umol/kg, sc; type: functional
Rattus norvegicus [33] = assay: In vivo HVA level was measured in killed rat striatal brain regions at a dose of 200 umol/kg, sc; type: functional
Rattus norvegicus [34] = assay: In vivo locomotor activity (LMA) in habituated rats at a dose of 200 umol/kg, sc, for 60 mins after 60 min habituation period; type: functional
[35] = target: 5-hydroxytryptamine receptor 1A (Homo sapiens, UniProt P08908); assay: as §1; type: cell-based; remark: listed apart in the source
Rattus norvegicus [36] = species on record: Rattus norvegicus; assay: In vitro stability relative to (+)-AJ76 in rat hepatocyte assay; In active; type: functional
Rattus norvegicus [37] = assay: In vivo 5-HIAA level was measured in killed rat limbic brain regions at a dose of 100 umol/kg, oral; type: functional, Limbic system
Rattus norvegicus [38] = assay: In vivo DOPAC level was measured in killed rat striatal brain regions at a dose of 100 umol/kg, oral.; type: functional
Rattus norvegicus [39] = assay: In vivo HVA level was measured in killed rat striatal brain regions at a dose of 100 umol/kg, oral.; type: functional
Rattus norvegicus [40] = assay: In vivo locomotor activity (LMA) in habituated rats at a dose of 100 umol/kg, oral, for 60 mins after 60 min habituation period; type: functional

Chain of D(3) dopamine receptor (Homo sapiens, UniProt P35462) (P35462 whole entry): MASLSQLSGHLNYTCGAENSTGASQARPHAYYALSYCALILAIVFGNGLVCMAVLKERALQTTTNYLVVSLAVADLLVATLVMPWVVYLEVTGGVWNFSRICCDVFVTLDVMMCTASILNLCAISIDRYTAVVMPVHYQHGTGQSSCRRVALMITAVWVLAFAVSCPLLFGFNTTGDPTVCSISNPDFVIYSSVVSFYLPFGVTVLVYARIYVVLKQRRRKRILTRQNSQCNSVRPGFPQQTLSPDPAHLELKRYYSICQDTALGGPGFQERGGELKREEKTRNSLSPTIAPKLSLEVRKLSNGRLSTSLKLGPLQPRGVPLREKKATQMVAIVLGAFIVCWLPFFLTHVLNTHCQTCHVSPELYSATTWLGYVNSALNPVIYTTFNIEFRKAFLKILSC
T1 sequence (P14416 whole entry): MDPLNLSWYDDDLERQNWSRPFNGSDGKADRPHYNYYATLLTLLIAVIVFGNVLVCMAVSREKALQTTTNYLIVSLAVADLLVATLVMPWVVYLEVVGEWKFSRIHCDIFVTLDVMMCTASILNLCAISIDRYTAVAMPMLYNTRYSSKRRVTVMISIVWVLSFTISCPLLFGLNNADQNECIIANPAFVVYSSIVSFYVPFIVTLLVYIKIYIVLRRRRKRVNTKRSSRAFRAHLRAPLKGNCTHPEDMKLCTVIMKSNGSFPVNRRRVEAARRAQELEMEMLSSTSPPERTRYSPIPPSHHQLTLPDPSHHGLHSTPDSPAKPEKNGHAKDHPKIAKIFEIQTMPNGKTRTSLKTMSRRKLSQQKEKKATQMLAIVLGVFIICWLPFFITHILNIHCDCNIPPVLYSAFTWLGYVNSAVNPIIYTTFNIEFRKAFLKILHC
Chain of D(2) dopamine receptor (Rattus norvegicus, UniProt P61169) (P61169 whole entry): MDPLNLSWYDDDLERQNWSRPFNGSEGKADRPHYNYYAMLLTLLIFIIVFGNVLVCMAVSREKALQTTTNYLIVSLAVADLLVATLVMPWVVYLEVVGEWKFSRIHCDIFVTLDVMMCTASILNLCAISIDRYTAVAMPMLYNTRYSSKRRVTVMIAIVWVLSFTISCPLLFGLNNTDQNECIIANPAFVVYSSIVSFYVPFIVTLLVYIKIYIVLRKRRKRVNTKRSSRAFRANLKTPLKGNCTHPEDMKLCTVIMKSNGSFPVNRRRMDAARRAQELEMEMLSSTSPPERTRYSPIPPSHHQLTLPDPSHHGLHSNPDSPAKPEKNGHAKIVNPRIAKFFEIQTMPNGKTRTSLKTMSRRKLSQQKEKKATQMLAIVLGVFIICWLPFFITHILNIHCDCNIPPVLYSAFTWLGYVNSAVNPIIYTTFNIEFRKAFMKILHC
Chain of D(3) dopamine receptor (Rattus norvegicus, UniProt P19020) (P19020 whole entry): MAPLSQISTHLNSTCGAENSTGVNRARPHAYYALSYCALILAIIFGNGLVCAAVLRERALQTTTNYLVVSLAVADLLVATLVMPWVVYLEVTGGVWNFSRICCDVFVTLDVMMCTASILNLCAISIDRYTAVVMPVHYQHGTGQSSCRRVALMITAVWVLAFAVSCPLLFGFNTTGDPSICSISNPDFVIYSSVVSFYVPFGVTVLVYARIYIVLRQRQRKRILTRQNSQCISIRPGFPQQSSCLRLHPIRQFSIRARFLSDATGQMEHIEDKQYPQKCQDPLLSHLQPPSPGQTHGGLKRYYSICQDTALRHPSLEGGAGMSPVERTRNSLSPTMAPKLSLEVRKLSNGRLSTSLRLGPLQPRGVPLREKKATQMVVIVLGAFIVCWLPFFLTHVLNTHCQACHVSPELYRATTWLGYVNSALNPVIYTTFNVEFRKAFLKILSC
Chain of D(3) dopamine receptor (Rattus norvegicus) (P19020 whole entry): as above

Compound | half-life [1] [h] | bioavailability [2] [%] | Ki (D(2) dopamine receptor [3]) [nM] | Activity (Rattus norvegicus [12]) | Activity (Rattus norvegicus [13]) | Activity (Rattus norvegicus [14]) | Activity (Rattus norvegicus [15]) | Ki (D(3) dopamine receptor [29]) [nM] | Ki (D(4) dopamine receptor [30]) [nM] | Activity (Rattus norvegicus [31]) | Activity (Rattus norvegicus [32]) | Activity (Rattus norvegicus [33]) | Activity (Rattus norvegicus [34]) | Ki [35] [nM] | also measured
CCCN[C@@H]1CCc2c(OC)cccc2[C@@H]1C | 1 | 1.6 | 145 |  |  |  |  |  |  |  |  |  |  |  | Activity (Rattus norvegicus [4]): 121; Activity (Rattus norvegicus [5]): <220; Activity (Rattus norvegicus [6]): <346; Activity (Rattus norvegicus [7]): <251; Activity (Rattus norvegicus [8]): <402; Activity (Rattus norvegicus [9]): <272; Activity (Rattus norvegicus [10]): <354; Activity (Rattus norvegicus [11]): 127
CCCN(CCC)[C@@H]1CCc2c(C(N)=O)cccc2[C@@H]1C |  |  |  | 113 | 135 | 128 | 169 |  |  |  |  |  |  |  | 
CCCN[C@@H]1CCc2c(C#N)cccc2[C@@H]1C |  |  |  | 100 | <224 | <248 | 149 |  |  |  |  |  |  |  | Ki (D(2) dopamine receptor [16]): Not Active; inhibition (D(2) dopamine receptor [17]): < 50%; Ki (D(3) dopamine receptor [18]): Not Active; inhibition [19]: < 50%; Ki (D(2) dopamine receptor [20]): 16700 nM; Ki (D(4) dopamine receptor [21]): Not Active; inhibition [22]: < 50%; Activity (Rattus norvegicus [23]): 102; Activity (Rattus norvegicus [24]): 121; Activity (Rattus norvegicus [25]): 136; Activity (Rattus norvegicus [26]): 165; Ki [27]: > 1790 nM
CCCN[C@@H]1CCc2c(C(N)=O)cccc2[C@@H]1C |  |  |  | 97 | 109 | 105 | 215 |  |  |  |  |  |  |  | Ki [28]: 6720 nM
CCCN(CCC)[C@@H]1CCc2c(OS(=O)(=O)C(F)(F)F)cccc2[C@@H]1C | 6 | 9.4 | 546 |  |  |  |  | 40 | 121 | 94 | <146 | <163 | <250 | > 3450 | 
CCCN[C@@H]1CCc2c(C(=O)OC)cccc2[C@@H]1C |  |  | 2330 |  |  |  |  | 253 | 1590 | <75 | 117 | 120 | 102 | 287 | 
CCCN(CCC)[C@@H]1CCc2c(OC)cccc2[C@@H]1C | 2.5 | 3.7 | 15 |  |  |  |  | 4.2 |  |  |  |  |  |  | Activity (Rattus norvegicus [36]): inactive; Activity (Rattus norvegicus [4]): 119; Activity (Rattus norvegicus [5]): <176; Activity (Rattus norvegicus [7]): <214; Activity (Rattus norvegicus [9]): <191; Activity (Rattus norvegicus [10]): <200
CCCN[C@@H]1CCc2c(OS(=O)(=O)C(F)(F)F)cccc2[C@@H]1C | 6 | 62.2 | 2560 |  |  |  |  | 171 | 621 | 92 | <130 | <135 | 167 | 3070 | 
CCCN(CCC)[C@@H]1CCc2c(C#N)cccc2[C@@H]1C |  |  |  | 95 | <213 | <241 | <334 |  |  |  |  |  |  |  | Ki (D(2) dopamine receptor [20]): 6670 nM; Activity (Rattus norvegicus [37]): 82; Activity (Rattus norvegicus [23]): 93; Activity (Rattus norvegicus [38]): <128; Activity (Rattus norvegicus [24]): <127; Activity (Rattus norvegicus [39]): <166; Activity (Rattus norvegicus [25]): <134; Activity (Rattus norvegicus [40]): <287; Activity (Rattus norvegicus [26]): 125; Ki [28]: 5040 nM
